According to article PMC11876601 (Molecular Systems Biology, 2025):
Where two headings read alike, the source gives them in different places.

Experiments:
[1] = test system: p-sites in DNA-damaged AsPC-1 cells; experiment: decryptM dose-resolved phosphoproteomics of ATRi in GEM-pre-treated cells; format: cell-based, human; conditions: for EC50: Homo sapiens, ASPC1; for PTM response (norm. to 1 µM GEM): source data 4B (p-site not named)
Description: Cell culture medium was replaced 24 h after seeding. […] For time point 0, AsPC-1 cells were treated with a vehicle and lysed immediately. The final DMSO concentration in all experiments was 0.2%.
Briefly, cells were washed twice with PBS and lysed in SDS lysis buffer (2% SDS in 40 mM Tris-HCl, pH 7.6), followed by sonication for 10 min (30 s on/30 s off) using a Bioruptor (Diagenode). For DNA hydrolysis, samples were boiled at 95 °C for 10 min and incubated with 2% trifluoroacetic acid (TFA) for 1 min, before the reaction was quenched using 4% N-methylmorpholine. Lysate was cleared by centrifugation at 11,000 × g for 5 min and protein concentration was determined using the Pierce BCA Protein Assay Kit (Thermo Scientific).
Using 70% ethanol, samples were then precipitated on beads, followed by washing thrice with 80% ethanol and once with 100% acetonitrile. Subsequently, proteins were reduced and alkylated using 10 mM TCEP, 50 mM chloroacetamide, and 2 mM CaCl2 in 100 mM EPPS/NaOH, pH 8.5 for 1 h at 37 °C, followed by tryptic digestion at 37 °C for 16 h. Peptides were acidified with 1% TFA and desalted on Chromabond HLB plates (30 µm particle size, 10 mg capacity, Machery-Nagel), using 0.1% TFA for equilibration and sample loading, and 0.1% TFA in 70% acetonitrile for peptide elution. Recovered peptides were freeze-dried by vacuum-centrifugation and stored at −20 °C.
Depending on the experiment, samples were either labeled with TMT-11plex (decryptM), TMT-10plex (non-decryptM, quadruplicates), or TMTpro reagent (time-series; all Thermo Scientific). Therefore, dried peptides were reconstituted in 15 µl 100 mM EPPS, pH 8.5 and each treatment condition was labeled with one channel of the respective TMT reagent (5 µl of 25 µg/µl reagent, Appendix Tables S4–S6). The reaction was incubated for 1 h at 23 °C and subsequently quenched with 0.4% hydroxylamine. Then, samples were pooled, acidified with 1% formic acid, and freeze-dried by vacuum-centrifugation. Labeled peptide pools were desalted on C18 Sep-Pak cartridges (37–55 µm particle size, 50 mg capacity, Waters), using 0.1% formic acid as equilibration solvent, and 0.1% formic acid in 60% acetonitrile was used as elution solvent. Eluted peptides were freeze-dried and stored at −20 °C until further use.
Basic reversed-phase (bRP) fractionation of peptides was performed on a Vanquish HPLC (Thermo Scientific). In short, dried peptides were reconstituted in 200 µl 25 mM ammonium bicarbonate, pH 8.0 and directly injected onto a Waters BEH130 XBridge C18 column (3.5 µm, 4.6 × 250 mm). […] Using an automated fraction collector, 96 fractions were collected between min 7 and 55 after injection. Fractions were acidified with 1% formic acid and pooled to 48 fractions, before they were freeze-dried and stored at −20 °C.
Immobilized metal ion affinity chromatography (IMAC) enrichment of phosphorylated peptides was performed on the Bravo automated liquid handling platform using AssayMAP Fe(III)-NTA cartridges (Agilent). In brief, the 48 dried peptide fractions were reconstituted in 0.1% TFA in 80% acetonitrile and further pooled to 12 fractions (200 µl final volume per well). The phosphopeptide enrichment protocol embedded in the Agilent AssayMAP Bravo Protein Sample Prep Workbench v2.0 software was run. Thereby, the cartridges were first primed with 150 μl 0.1% TFA in acetonitrile at 300 μl/min, and equilibrated with 150 μl 0.1% TFA in 80% acetonitrile at 10 μl/min. Then, pooled fractions were loaded at 5 µl/min and further washed three times with 150 μl 0.1% TFA in 80% acetonitrile at 50 μl/min. Enriched peptides were eluted with 60 μl 1% ammonium hydroxide at 5 μl/min.

MiaPaCa-2 = experiment: cells; design: ATPlite luminescence viability of PDAC cell lines, 11-dose single-agent curves, 4-parameter fit; conditions: Homo sapiens, MIA PaCa-2, 72 h, read-out: EC50 [nM]
How it was run: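 cells (1000 to 5000 per well) seeded 24 h before drug addition in a combination screen at 0.2% final DMSO. Controls were drug-free wells (negative) and 5 µM staurosporine (positive).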

Nc1nn2cc(F)cnc2c1C(=O)Nc1cncc(F)c1N1CCC(C(=O)N2CCN(C3COC3)CC2)CC1 [Gartisertib]
Ratio TMT 9 (PTM response normalized to 1,000 nM GEM), AAAS S495 ([1]; 1,000 nM GEM + 1 nM ATRi): 1.01
Ratio TMT 8 (PTM response normalized to 1,000 nM GEM), AAAS S495 ([1]; 1,000 nM GEM + 3 nM ATRi): 1.19
Ratio TMT 7 (PTM response normalized to 1,000 nM GEM), AAAS S495 ([1]; 1,000 nM GEM + 10 nM ATRi): 1.10
Ratio TMT 6 (PTM response normalized to 1,000 nM GEM), AAAS S495 ([1]; 1,000 nM GEM + 30 nM ATRi): 1.01
Ratio TMT 5 (PTM response normalized to 1,000 nM GEM), AAAS S495 ([1]; 1,000 nM GEM + 100 nM ATRi): 0.97
Ratio TMT 4 (PTM response normalized to 1,000 nM GEM), AAAS S495 ([1]; 1,000 nM GEM + 300 nM ATRi): 1.12
Ratio TMT 3 (PTM response normalized to 1,000 nM GEM), AAAS S495 ([1]; 1,000 nM GEM + 1,000 nM ATRi): 1.11
Ratio TMT 2 (PTM response normalized to 1,000 nM GEM), AAAS S495 ([1]; 1,000 nM GEM + 3,000 nM ATRi): 1.00
Ratio TMT 1 (PTM response normalized to 1,000 nM GEM), AAAS S495 ([1]; 1,000 nM GEM + 10,000 nM ATRi): 1.09
Log2 PTM response (GEM+ATRi vs. GEM) ([1]; AASDHPPT-pS258): -1.6
Log2 PTM response (GEM+ATRi vs. GEM) ([1]; BRCA1-pS1239): -2
Log2 PTM response (GEM+ATRi vs. GEM) ([1]; BRD8-pS621): -1.6
Log2 PTM response (GEM+ATRi vs. GEM) ([1]; CDKN2AIP-pS198): -1.3
Log2 PTM response (GEM+ATRi vs. GEM) ([1]; CHEK1-pS317): -2.3
Log2 PTM response (GEM+ATRi vs. GEM) ([1]; EXO1-pS714): -1.9
Log2 PTM response (GEM+ATRi vs. GEM) ([1]; FANCD2-pS319): -1
Log2 PTM response (GEM+ATRi vs. GEM) ([1]; HDGF-pS103): -1.6
Log2 PTM response (GEM+ATRi vs. GEM) ([1]; HMGA1-pS9): -2
Log2 PTM response (GEM+ATRi vs. GEM) ([1]; HMGA1-pS36;S44): -0.9
Log2 PTM response (GEM+ATRi vs. GEM) ([1]; HMGA1-pS44): -2.1
Log2 PTM response (GEM+ATRi vs. GEM) ([1]; HTATSF1-pS481): -1.1
EC50 ([1]; approximate, from density plot Fig. 4C (peer review file), read-out: EC50 of the majority of pSQ/pTQ sites): ~10 nM
EC50 ([1]; approximate, from density plot Fig. 4C (peer review file), read-out: pEC50 of the majority of pSQ/pTQ sites (converted)): ~10 nM
EC50 ([1]; p-site dose-response in GEM-pre-treated cells, read-out: EC50, RALY S176): 1.91 nM
EC50 ([1]; p-site dose-response in GEM-pre-treated cells, read-out: pEC50, RALY S176 (converted)): 1.91 nM
EC50 ([1]; read-out: median EC50 across all drug-regulated pSQ/pTQ-sites): 21 nM
Log2 PTM response (GEM+ATRi vs. GEM) ([1]; LRRC42-pS385): -2.5
Log2 PTM response (GEM+ATRi vs. GEM) ([1]; NBN-pS397): -1.3
Log2 PTM response (GEM+ATRi vs. GEM) ([1]; NBN-pS615): -0.8
Log2 PTM response (GEM+ATRi vs. GEM) ([1]; NSUN5-pS432): -2.2
Log2 PTM response (GEM+ATRi vs. GEM) ([1]; PELP1-pS1033): -1
Log2 PTM response (GEM+ATRi vs. GEM) ([1]; PHF14-pS294): -1.2
Log2 PTM response (GEM+ATRi vs. GEM) ([1]; PNISR-pS706): -1.9
Log2 PTM response (GEM+ATRi vs. GEM) ([1]; PPM1G-pS201): -2.3
Log2 PTM response (GEM+ATRi vs. GEM) ([1]; PPP6R3-pS825): -1
Log2 PTM response (GEM+ATRi vs. GEM) ([1]; PSMD4-pS266): -1.2
Log2 PTM response (GEM+ATRi vs. GEM) ([1]; RAD18-pS368): -2.8
Log2 PTM response (GEM+ATRi vs. GEM) ([1]; RIF1-pS1873): -1.4
Log2 PTM response (GEM+ATRi vs. GEM) ([1]; SNRPA-pS115): -1
Log2 PTM response (GEM+ATRi vs. GEM) ([1]; TCEA1-pS100;S97): -2.6
Log2 PTM response (GEM+ATRi vs. GEM) ([1]; TCEB3-pS251): -1.6
Log2 PTM response (GEM+ATRi vs. GEM) ([1]; THAP4-pS186): -1.3
Log2 PTM response (GEM+ATRi vs. GEM) ([1]; TOPBP1-pS1504): -1.4
Log2 PTM response (GEM+ATRi vs. GEM) ([1]; TSEN34-pS136): -1.3
Log2 PTM response (GEM+ATRi vs. GEM) ([1]; UHRF1-pS393): -0.6
Log2 PTM response (GEM+ATRi vs. GEM) ([1]; UIMC1-pS171): -1
ATRi Regulation (Curve), RALY S176 ([1]; classified by CurveCurator): down
Curve Log2 Fold Change, RALY S176 ([1]; fitted dose-response curve): -1.45 log2
PTM response (norm. to 1 µM GEM) ([1]; 1 µM GEM + ATRi 1 nM): 1.13
PTM response (norm. to 1 µM GEM) ([1]; 1 µM GEM + ATRi 3 nM): 0.97
PTM response (norm. to 1 µM GEM) ([1]; 1 µM GEM + ATRi 10 nM): 0.75
PTM response (norm. to 1 µM GEM) ([1]; 1 µM GEM + ATRi 30 nM): 0.41
PTM response (norm. to 1 µM GEM) ([1]; 1 µM GEM + ATRi 100 nM): 0.29
PTM response (norm. to 1 µM GEM) ([1]; 1 µM GEM + ATRi 300 nM): 0.28
PTM response (norm. to 1 µM GEM) ([1]; 1 µM GEM + ATRi 1000 nM): 0.21
PTM response (norm. to 1 µM GEM) ([1]; 1 µM GEM + ATRi 3000 nM): 0.17
PTM response (norm. to 1 µM GEM) ([1]; 1 µM GEM + ATRi 10000 nM): 0.19

C[C@]12O[C@H](C[C@]1(O)CO)n1c3ccccc3c3c4c(c5c6ccccc6n2c5c31)CNC4=O [Lestaurtinib]
EC50 (MiaPaCa-2): 275 nM
